Series [1] has as its system C. pipiens Slab strain larvae. Nature of the series: Larval bioassay, Slab strain (OP-susceptible). To be noted: fourth-instar larvae, 24 hours exposure, 300 µM. The text has this:
Three C. pipiens strains were used: the susceptible reference Slab strain, homozygous for ace-1 ^S [39], the resistant reference SR strain, carrying the genetical background of Slab but homozygous for the G119S mutation, allele ace-1 ^R [21] and the Ducos strain, carrying the genetical background of Slab but homozygous for an ace-1 duplication, with one ace-1^S and ace-1^R copy in tandem. Culex pipiens heterozygous larvae (Slab×SR) were obtained by crossing Slab males and SR females. Two A. gambiae reference strains (S molecular form) were used: the susceptible strain Kisumu, homozygous for ace-1 ^S, collected in Kenya in 1953 and maintained since then under laboratory conditions and the resistant Acerkis strain, carrying the genetical background of Kisumu but homozygous for an ace-1^R allele from a population collected in Bobo-Dioulasso, Burkina Faso [41].
Insecticidal activity was determined by performing bioassays on fourth-instar larvae as described in [42]. Each compound was dissolved in ethanol. Propoxur (CX) and chlorpyrifos (OP) were used as references. For each compound, we first tested mortality after a 24-hour exposure at 300 µM. […] Mortality data were analyzed by the log-probit program. This program takes into account natural mortality and provides lethal doses (LD) and slopes for each mortality line; it also computes resistance ratios (RR) for each LD, with 95% confidence intervals.

The subject of series [2] is C. pipiens SR strain larvae. Nature of the series: Larval bioassay, SR strain (OP-resistant). As to conditions: fourth-instar larvae, 24 hours exposure, 300 µM. The source says:
Three C. pipiens strains were used: the susceptible reference Slab strain, homozygous for ace-1 ^S [39], the resistant reference SR strain, carrying the genetical background of Slab but homozygous for the G119S mutation, allele ace-1 ^R [21] and the Ducos strain, carrying the genetical background of Slab but homozygous for an ace-1 duplication, with one ace-1^S and ace-1^R copy in tandem. Culex pipiens heterozygous larvae (Slab×SR) were obtained by crossing Slab males and SR females.
Insecticidal activity was determined by performing bioassays on fourth-instar larvae as described in [42]. Each compound was dissolved in ethanol. Propoxur (CX) and chlorpyrifos (OP) were used as references. For each compound, we first tested mortality after a 24-hour exposure at 300 µM. […] Mortality data were analyzed by the log-probit program.

In another series the target is T1, G119S AChE1 (Culex pipiens, UniProt Q86GC8, G247S).
T1 construct: made in house; host or cells: Drosophila S2 cells
Description: biochemical. It is filed as biochemical. To be noted: recombinant OP-insensitive G119S C. pipiens AChE1; 15 min incubation; acetylthiocholine; read-out: IC50 G119S. On the procedure:
Production of C. pipiens WT and mutated AChE1s in Drosophila S2 cells was already described. The chemical library (ChemBridge, 3,000 compounds) screening was performed in duplicate on G119S recombinant AChE1. Chemicals were made soluble in ethanol or dimethylsulphoxide (DMSO), and then diluted at 300 µM in ethanol for storage. […] PTF analogs were analyzed in dose-response experiments (10-fold serial dilutions from 3 mM to 30 nM), using recombinant WT and G119S AChE1 or mosquito head extracts (heads cut from frozen mosquitoes, homogenized in 400 µl PB containing 1% Triton X-100 and cleared by centrifugation at 9,000×g for 3 min). Depending on compound availability, two to five replicates were performed with distinct batches of enzyme. […] IC50 was estimated by nonlinear least square regression. IC50 was also measured on AChE1 from susceptible and resistant mosquito larvae extracts.

The next series has as its target WT AChE1 (Culex pipiens, UniProt Q86GC8). Description: AChE assay (Ellman), dose-response on recombinant WT AChE1. It is filed as biochemical. On the set-up: made in house; host or cells: Drosophila S2 cells. As to conditions: recombinant wild-type C. pipiens AChE1; 15 min incubation; acetylthiocholine; read-out: IC50 WT. As to the method: Production of C. pipiens WT and mutated AChE1s in Drosophila S2 cells was already described. The chemical library (ChemBridge, 3,000 compounds) screening was performed in duplicate on G119S recombinant AChE1. Chemicals were made soluble in ethanol or dimethylsulphoxide (DMSO), and then diluted at 300 µM in ethanol for storage. Compounds (30 µM final concentration) were incubated for 15 min at room temperature with 100 µl of G119S recombinant AChE1 then 100 µl of substrate (acetylthiocholine, 1.6 mM, Sigma-Aldrich) was added and the residual activity was quantified by measuring the optical density at 412 nm, as described by Ellman et al.. PTF analogs were analyzed in dose-response experiments (10-fold serial dilutions from 3 mM to 30 nM), using recombinant WT and G119S AChE1 or mosquito head extracts (heads cut from frozen mosquitoes, homogenized in 400 µl PB containing 1% Triton X-100 and cleared by centrifugation at 9,000×g for 3 min). Depending on compound availability, two to five replicates were performed with distinct batches of enzyme. […] IC50 was estimated by nonlinear least square regression. IC50 was also measured on AChE1 from susceptible and resistant mosquito larvae extracts.
In general terms: Ellman's reagent forms a yellow product with free thiols.

Molecules are shown by their SMILES.

For the compound `CCc1ccc(N2C(=O)C(=Cc3ccc(C)o3)C(=O)NC2=S)cc1` [PTF-26], in series [1], the “Mortality at 300 µM, Slab” value turned out to be 100%. In addition, the “Mortality at 300 µM, SR” value in series [2] is 65%. The figures for the IC50 at G119S AChE1 and at WT AChE1 were 16 µM and 9 µM, respectively.
The matching figures for `CN1CCN(c2ccc(C=C3C(=O)N(C)C(=O)N(C)C3=O)o2)CC1` [PTF-52]: 0%, 0%, 52 µM and 860 µM.
Taken in the same sequence, the figures for `O=C1NC(=O)N(c2ccccc2)C(=O)C1=Cc1cccs1` [PTF-67] were 0%, 0%, 11.2 µM and 9.1 µM.
Taken in the same sequence, the figures for `C=CCN1C(=O)NC(=O)C(=Cc2ccc(C)o2)C1=O` [PTF-1] were 0%, 0%, 2.2 µM and 3 µM.
Regarding `CN1C(=O)C(=Cc2ccc(N3CCCC3)o2)C(=O)N(C)C1=O` [PTF-48], the “Mortality at 300 µM, Slab” value in series [1] stood at 0%. Also, the “Mortality at 300 µM, SR” value in series [2] is 0%. Moreover, the IC50 came out at 1520 µM on G119S AChE1 and 755 µM at WT AChE1.
With `CCOC(=O)c1ccc(-c2ccc(C=C3C(=O)NC(=O)N(c4ccccc4)C3=O)o2)cc1` [PTF-56], in series [1], the “Mortality at 300 µM, Slab” value turned out to be 0%. Also, the “Mortality at 300 µM, SR” value in series [2] is listed as 0%. The IC50 at G119S AChE1 came out at 1.9 µM; at WT AChE1, 4.9 µM.
For the compound `O=C1NC(=O)N(c2ccccc2)C(=O)C1=Cc1ccco1` [PTF-54], in series [1], the “Mortality at 300 µM, Slab” value is on record as 100%. Moreover, the “Mortality at 300 µM, SR” value in series [2] came out at 100%. The IC50 came out at 737 µM on G119S AChE1 and 1390 µM at WT AChE1.
As to `Cc1ccc(C=C2C(=O)NC(=O)N(c3ccccc3)C2=O)s1` [PTF-68], the “Mortality at 300 µM, Slab” value in series [1] worked out at 89%. Besides, the “Mortality at 300 µM, SR” value in series [2] worked out at 95%. Moreover, the values for the IC50 on G119S AChE1 and at WT AChE1 were 5 µM and 4 µM, respectively.
Taken in the same sequence, the figures for `Cc1ccc(C=C2C(=O)NC(=O)N(c3ccccc3C)C2=O)o1` [PTF-5] were 0%, 0%, 1.1 µM and 1.4 µM.
Taken in the same sequence, the figures for `O=C1NC(=O)N(c2ccccc2)C(=O)C1=Cc1ccc(N2CCOCC2)s1` [PTF-71] were 0%, 0%, 2480 µM and 4500 µM.
For `Cc1ccc(C=C2C(=O)NC(=S)N(CCc3ccc(F)cc3)C2=O)o1` [PTF-34], the “Mortality at 300 µM, Slab” value in series [1] is given as 0%. Moreover, the “Mortality at 300 µM, SR” value in series [2] was found to be 0%. Besides, the figures for the IC50 on G119S AChE1 and on WT AChE1 were 38 µM and 24 µM, respectively.
On to `CN1C(=O)C(=Cc2ccc(Sc3ccccc3)o2)C(=O)N(C)C1=O` [PTF-47], for which, in series [1], the “Mortality at 300 µM, Slab” value is 0%. For the same compound, the “Mortality at 300 µM, SR” value in series [2] worked out at 0%. Moreover, the IC50 on G119S AChE1 stood at 1.3 µM; at WT AChE1, 3 µM.
Consider `COc1ccccc1N1C(=O)C(=Cc2ccc(C)o2)C(=O)NC1=S` [PTF-28], for which the “Mortality at 300 µM, Slab” value in series [1] was determined as 0%. The “Mortality at 300 µM, SR” value in series [2] is 0%. For the same compound, the values for the IC50 on G119S AChE1 and on WT AChE1 were 1.8 µM and 2.1 µM, respectively.
Turning to `O=C1NC(=O)N(c2ccccc2)C(=O)C1=Cc1ccc(-c2ccc(C(=O)O)cc2)o1` [PTF-57], the “Mortality at 300 µM, Slab” value in series [1] is 0%. In series [2], the “Mortality at 300 µM, SR” value was determined as 0%. Further, the IC50 came to 5.4 µM at G119S AChE1 and 11.3 µM at WT AChE1.
As to `Cc1ccc(C=C2C(=O)NC(=O)N(Cc3ccco3)C2=O)o1` [PTF-16], in series [1], the “Mortality at 300 µM, Slab” value is 80%. Also, the “Mortality at 300 µM, SR” value in series [2] was found to be 100%. In addition, the IC50 turned out to be 37 µM at G119S AChE1 and 260 µM at WT AChE1.
Taken in the same sequence, the figures for `CCN(CC)c1ccc(C=C2C(=O)N(C)C(=O)N(C)C2=O)o1` [PTF-42] were 0%, 0%, 1040 µM and 720 µM.
Regarding `Cc1ccc(C=C2C(=O)NC(=S)N(c3ccc(F)cc3)C2=O)o1` [PTF-33], the “Mortality at 300 µM, Slab” value in series [1] is on record as 16%. In series [2], the “Mortality at 300 µM, SR” value turned out to be 77%. The values for the IC50 on G119S AChE1 and on WT AChE1 were 22 µM and 490 µM, respectively.
In the case of `Cc1ccc(C=C2C(=O)NC(=S)N(c3ccc(C(=O)O)cc3)C2=O)o1` [PTF-31], in series [1], the “Mortality at 300 µM, Slab” value came out at 20%. The “Mortality at 300 µM, SR” value in series [2] was found to be 20%. Moreover, the values for the IC50 on G119S AChE1 and on WT AChE1 were 0.2 µM and 0.5 µM, respectively.
Regarding `CN1C(=O)C(=Cc2ccc(-c3ccc(S(N)(=O)=O)cc3)o2)C(=O)N(C)C1=O` [PTF-46], the “Mortality at 300 µM, Slab” value in series [1] is on record as 0%. Also, the “Mortality at 300 µM, SR” value in series [2] is reported as 0%. The IC50 at G119S AChE1 was found to be 5.2 µM; at WT AChE1, 1.7 µM.
On to `Cc1ccc(C=C2C(=O)NC(=S)N(c3cccc(Cl)c3)C2=O)o1` [PTF-36], for which the “Mortality at 300 µM, Slab” value in series [1] is given as 30%. The “Mortality at 300 µM, SR” value in series [2] is given as 40%. The half-inhibitory concentration (IC50) at G119S AChE1 was determined as 8 µM; on WT AChE1 it was 11.8 µM.
The matching figures for `O=C1NC(=O)N(c2ccccc2)C(=O)C1=Cc1ccc(-c2cccc(C(=O)O)c2)o1` [PTF-58]: 0%, 0%, 9.3 µM and 6.7 µM.
In the case of `C=CCN1C(=O)NC(=O)C(=Cc2ccc(C)s2)C1=O` [PTF-66], the “Mortality at 300 µM, Slab” value in series [1] is recorded as 63%. The “Mortality at 300 µM, SR” value in series [2] worked out at 100%. For the same compound, the 50% inhibitory concentration (IC50) on G119S AChE1 is 51 µM; on WT AChE1, 91.6 µM.
Consider `CC(C)(C)N=C1NC(=O)C(=Cc2ccco2)C(=O)N1c1ccccc1` [PTF-65], for which the “Mortality at 300 µM, Slab” value in series [1] was determined as 0%. Also, the “Mortality at 300 µM, SR” value in series [2] turned out to be 0%. Also, the IC50 turned out to be 22 µM on G119S AChE1 and 37 µM at WT AChE1.
As for `Cc1cccc(N2C(=O)NC(=O)C(=Cc3ccc(C)o3)C2=O)c1` [PTF-6], in series [1], the “Mortality at 300 µM, Slab” value was 0%. In addition, the “Mortality at 300 µM, SR” value in series [2] stood at 0%. Besides, the IC50 is 4.4 µM on G119S AChE1 and 4 µM at WT AChE1.
Turning to `Cc1ccc(C=C2C(=O)NC(=O)N(CCc3ccc(F)cc3)C2=O)o1` [PTF-19], the “Mortality at 300 µM, Slab” value in series [1] turned out to be 0%. The “Mortality at 300 µM, SR” value in series [2] came out at 0%. For the same compound, the IC50 was 3.7 µM on G119S AChE1 and 3.3 µM on WT AChE1.
Regarding `O=C1NC(=O)N(c2ccccc2)C(=O)C1=Cc1ccc(-c2ccccc2C(=O)O)o1` [PTF-59], the “Mortality at 300 µM, Slab” value in series [1] is 0%. The “Mortality at 300 µM, SR” value in series [2] turned out to be 0%. Further, the IC50 is 18.5 µM on G119S AChE1 and 45.7 µM at WT AChE1.
Take `CN1C(=O)C(=Cc2ccc(-c3ccc4c(c3)COC4=O)o2)C(=O)N(C)C1=O` [PTF-53]: the “Mortality at 300 µM, Slab” value in series [1] came to 0%. Besides, the “Mortality at 300 µM, SR” value in series [2] amounted to 0%. The IC50 on G119S AChE1 worked out at 5.6 µM; on WT AChE1, 0.6 µM.
Regarding `O=C1NC(=S)N(c2ccccc2)C(=O)C1=Cc1ccco1` [PTF-63], the “Mortality at 300 µM, Slab” value in series [1] came to 0%. Moreover, in series [2], the “Mortality at 300 µM, SR” value is 0%. The IC50 on G119S AChE1 was 98 µM; on WT AChE1, 151 µM.

In general, IC50 refers to the point on the concentration scale where inhibition reaches its midpoint.
